Reference: article doi:10.1101/2024.06.14.598950v1 (biorxiv, 2024)

Columns and labels:
Experiment in all cases: DTNB spectrophotometric assay, nonlinear regression
Format in all cases: biochemical, Brassica juncea
Conditions in all cases: 30 °C
Bju.IPMS1-A2 = tested on: Bju.IPMS1-A2
Bju.IPMS1-A1 = tested on: Bju.IPMS1-A1
Bju.IPMS1-B2 = tested on: Bju.IPMS1-B2
Bju.IPMS1-B1 = tested on: Bju.IPMS1-B1

Km (Bju.IPMS1-A2; 0.5 mM acetyl-CoA) [µM] | Km (Bju.IPMS1-A1; 0.5 mM acetyl-CoA) [µM] | Km (Bju.IPMS1-B2; 0.5 mM acetyl-CoA) [µM] | Km (Bju.IPMS1-B1; 0.5 mM acetyl-CoA) [µM] | Km (Bju.IPMS1-A2; 1 mM 2-oxoisovalerate) [µM] | Km (Bju.IPMS1-A1; 1 mM 2-oxoisovalerate) [µM] | Km (Bju.IPMS1-B2; 1 mM 2-oxoisovalerate) [µM] | Km (Bju.IPMS1-B1; 1 mM 2-oxoisovalerate) [µM] | Structure (SMILES)
144 ± 40.9 | 158 ± 35.4 | 231 ± 47.1 | 217 ± 67.2 |  |  |  |  | CC(C)C(=O)C(=O)O [2-oxoisovalerate, 3-methyl-2-oxobutanoate]
 |  |  |  | 406 ± 75.9 | 770 ± 211 | 532 ± 91.9 | 1260 ± 369 | CC(=O)SCCNC(=O)CCNC(=O)[C@H](O)C(C)(C)COP(=O)(O)OP(=O)(O)OC[C@H]1O[C@@H](n2cnc3c(N)ncnc32)[C@H](O)[C@@H]1OP(=O)(O)O [acetyl-CoA]
